From patent US12157882B2, “Lactobacillus plantarum strain ATG-K2, ATG-K6 or ATG-K8, and composition for preventing or treating vaginitis comprising same” (ATOGEN CO., LTD, priority 2018, dated 2024)

How the values were obtained:
[1] = test system: Gardnerella vaginalis KCTC5096 (GV); assay: Growth inhibition by cell-free culture supernatant (CFCS); assay type: cell-based; details: CFCS at 1× concentration, culture for 48 hr, OD600
Experimental: (§1) In order to measure the activity of the lactic-acid bacteria culture solution on inhibiting the growth of vaginitis pathogens, a 10-fold-concentrated cell-free culture supernatant (CFCS) was prepared. The culture solution of each of K2, K6 and K8 lactic-acid bacteria was centrifuged at 4,000 rpm for 25 min, thereby separating the cells of the lactic-acid bacteria and the culture supernatant from each other. The culture supernatant was filtered using a 0.2 μm pore syringe filter (Sartorius, Germany). The filtered culture supernatant was lyophilized and suspended in 1×PBS to afford a solution concentrated 10-fold compared to the volume of the initial culture solution. CA was inoculated at a concentration of 1×10^5 CFU/ml and GV was inoculated at a concentration of 1×10^6 CFU/ml under individual culture conditions. The CFCS of lactic-acid bacteria was added in a volume corresponding to 0.1 times the final volume to the vaginitis-pathogen-inoculated solution so as to reach 1×, and the test group not added with CFCS was used as a control. The mixed composition was cultured for 24 hr for CA and 48 hr for GV under individual vaginitis-pathogen culture conditions, and the absorbance was measured at a wavelength of OD600. Based on the measured absorbance, growth inhibition was determined using the following cytotoxicity calculation equation. In this equation, ODcontrol represents the absorbance of the control, and ODcfcs represents the absorbance of the CFCS-added group. Growth inhibition (%)=(ODcontrol−ODcfcs)/ODcontrol×100

[2] = test system: Candida albicans KCTC7678 (CA); assay: as above; assay type: cell-based; details: CFCS at 1× concentration, culture for 24 hr, OD600
Experimental: as §1

[3] = test system: Gardnerella vaginalis KCTC5096 (GV); assay: Coaggregation of lactic-acid bacteria on vaginitis pathogen; assay type: cell-based; details: time given only for CA (8 hr)
Experimental: (§2) Briefly, lactic-acid bacteria and vaginitis pathogens were centrifuged at 13,000 rpm for 5 min and the supernatant was decanted, after which the precipitated microorganism cells were washed using 1×PBS. After washing was repeated twice, the microorganisms were each suspended using 1×PBS until an absorbance OD600 of 1.0 was obtained. The lactic-acid bacteria suspension and the vaginitis pathogens were mixed at the same volume ratio, homogenized through vortexing, and allowed to stand, after which the supernatant of the mixed solution was carefully obtained at 1, 4, and 8 hr, and the absorbance thereof was measured. The suspension without mixing the microorganisms was used as a control. Based on the measured absorbance, coaggregation was calculated using the following equation. Here, ODpatho represents the absorbance of the vaginitis pathogen, ODLAB represents the absorbance of the lactic-acid bacteria, and ODmix represents the absorbance of the mixed solution of microorganisms. Coaggregation (%)={(ODpatho+ODLAB)/2−ODmix}/(ODpatho+ODLAB)/2

[4] = test system: Candida albicans KCTC7678 (CA); assay: as above; assay type: cell-based; details: at 8 hr
Experimental: as §2

[5] = test system: TNF-α in mouse macrophage cell line RAW264.7; assay: TNF-α ELISA, RAW264.7 cells treated with lactic-acid bacteria lysate; assay type: cell-based; details: lysate 100 μg/ml and 500 μg/ml, 24 hr
Experimental: In order to measure the immunological effects of K2, K6 and K8 lactic-acid bacteria, a cytokine quantification experiment using cells was performed. The cells that were used were a mouse macrophage cell line RAW264.7, and the medium used for each cell experiment was a Gibco® Dulbecco's Modified Eagle Medium (DMEM, Gibco, USA) supplemented with 10% fetal bovine serum (Gibco, USA) and 1% penicillin/streptomycin cocktail (Sigma-Aldrich, Germany). RAW264.7 cells cultured at about 80-90% confluency before material treatment were recovered and seeded in an amount of 1×10^6 cells per well of a 24-well plate. After seeding, culture was carried out in an environment of 37° C. and 5% CO2 for 24 hr in order to realize attachment to the 24-well plate and stabilization thereof. Each well was treated with the lactic-acid bacteria lysate at concentrations of 100 μg/ml and 500 μg/ml, and 1 μg/ml of lipopolysaccharide (LPS, Sigma-Aldrich, Germany) was used as a positive control, and an experimental group not treated with any material was used as a negative control. The cells were cultured at 37° C. and 5% CO2 for 24 hr after material treatment, and the cell culture solution was recovered, followed by enzyme-linked immunosorbent assay (ELISA) for IL-6 and TNF-α. Measurement was performed for IL-6 using a Mouse IL-6 Quantikine ELISA Kit (R&D systems, USA) and for TNF-α using a Mouse TNF-alpha Quantikine ELISA Kit (R&D systems, USA).

[6] = ABTS radical-scavenging experiment with lactic-acid bacteria lysate; assay type: biochemical; details: for ABTS radical-scavenging activity: lactic-acid bacteria lysate, dark reaction 10 min, 734 nm; for antioxidant activity, ranking among strains: lysate, at 10 mg and above
Experimental: In order to evaluate the antioxidant activity of each of the lactic-acid bacteria strains, a radical-scavenging experiment was conducted using 2,2′-azino-bis(3-ethylbenzthiazoline-6-sulfonic acid) (ABTS, Sigma-Aldrich, Germany). Briefly, lactic-acid bacteria were cultured for about 24 hr, allowed to react with lysozyme (Sigma-Aldrich, Germany) for 2 hr at 37° C., and lysed through sonication to obtain each lactic-acid bacteria lysate. The solid content thereof was measured using a water content analyzer, and a stock solution was adjusted to a concentration of 50 mg/ml. To prepare ABTS, 14 mM ABTS stock solution and 4.9 mM potassium persulfate were mixed at a volume ratio of 1:1, followed by dark reaction overnight so that the resulting mixture turned blue-green. A working solution obtained by diluting the corresponding solution until an absorbance OD-734 reached about 0.7 was added with 10% of each lactic-acid bacteria lysate sample, followed by dark reaction for 10 min, after which the absorbance at a wavelength of 734 nm was measured, and each measured value was substituted into the following equation. ABTS radical-scavenging activity (%)={1−(ODsample/ODcontrol)}×100

[7] = Heat resistance: viable cell count while bathing at 70° C. in a water bath; assay type: physicochemical
Experimental: In order to investigate the heat resistance of lactic-acid bacteria of the present disclosure, samples were obtained at 20 sec, 40 sec, 60 sec, and 80 sec while bathing at 70° C. in a water bath, a viable cell count was taken to thus determine resistance to heat, and the results thereof are shown in Table 2 below and in FIG. 2. In Table 2 and in FIG. 2, a viable cell count is represented as a Log10 CFU/ml value, and the number in parentheses represents the viability (%) compared to the initial count. Each result value is the average of three independent experiments.

sheep blood = assay type: cell-based
Experimental: In order to evaluate the presence or absence of hemolysis of lactic-acid bacteria in relation to safety of probiotics, K2, K6 and K8 strains were inoculated into a tryptic soybean agar (TSA, Difco Laboratories, USA) containing 5% sheep blood, and were then cultured at 37° C. for about 24 to 48 hr.

[8] = Initial, average of three independent experiments

Substance	growth inhibition of GV [1]	growth inhibition of CA [2]	coaggregation with GV [3]	coaggregation with CA [4]	TNF-α production compared to the control [5]	ABTS radical-scavenging activity [6]	viability compared to the initial count ([7]; 70° C. water bath, 20 sec)	viable cell count ([7]; 70° C. water bath, 20 sec)	viability compared to the initial count ([7]; 70° C. water bath, 40 sec)	viable cell count ([7]; 70° C. water bath, 40 sec)	viability compared to the initial count ([7]; 70° C. water bath, 60 sec)	viable cell count ([7]; 70° C. water bath, 60 sec)	viability compared to the initial count ([7]; 70° C. water bath, 60 sec, listed as K2)	viability compared to the initial count ([7]; Initial)	viable cell count [7, 8]	hemolysis and clear zones (sheep blood)	antioxidant activity, ranking among strains [6]	viability compared to the initial count ([7]; 70° C. water bath, 60 sec, listed as K6)	viability compared to the initial count ([7]; 70° C. water bath, 60 sec, listed as K8)
Lactobacillus plantarum ATG-K2 [Lb. plantarum ATG-K2]	37.49%	87.05%	32.72%	70.73%	induced	exhibited radical-scavenging activity	(109.65%	8.99 Log10 CFU/ml	(91.33%	8.92 Log10 CFU/ml	(70.95%	8.80 Log10 CFU/ml	70.95%	(100.00%	8.95 Log10 CFU/ml	not observed	–	–	–
Lactobacillus plantarum ATG-K6 [Lb. plantarum ATG-K6]	28.25%	82.11%	30.39%	58.57%	induced	exhibited radical-scavenging activity	(97.27%	9.43 Log10 CFU/ml	(87.46%	9.38 Log10 CFU/ml	(68.88%	9.28 Log10 CFU/ml	–	(100.00%	9.44 Log10 CFU/ml	not observed	greatest effect	68.88%	–
Lactobacillus plantarum ATG-K8 [Lb. plantarum ATG-K8]	44.60%	81.34%	20.45%	57.88%	induced	exhibited radical-scavenging activity	(89.67%	9.49 Log10 CFU/ml	(75.26%	9.41 Log10 CFU/ml	(74.32%	9.41 Log10 CFU/ml	–	(100.00%	9.55 Log10 CFU/ml	not observed	next-greatest antioxidant activity	–	74.32%
